The subject of series [1] is A549 tumors. Nature of the series: Lung adenocarcinoma xenograft model. In kind it is in vivo, nude mice. As to conditions: for Highest TGI (%): Day 7. How it is done:
FIG. 13A-13B show efficacy of Compound 1 in a lung adenocarcinoma xenograft model (A549). A) In vitro potency of Compound 1 in A549 cells as evaluated by ATPlite 1Step™ Perkin Elmer (performed by NTRC Oncolines). B) A549 cells (5×10^6) were implanted subcutaneously in athymic female nude mice and tumors were allowed to grow to a volume of ˜112 mm^3 followed by randomization of animals into three (3) groups (vehicle control, 75 mg/kg, 150 mg/kg Compound 1) with 12 animals per group. A Compound 1 solid dispersion was prepared prior to each dosing and administered by oral gavage two times a day (BID). Mean tumor volume of each group over time and the growth of tumor in each individual animal was graphed. For each individual animal of […] group TGI (%) was calculated based on the tumor growth inhibition of individual tumor at each given day of the study compared to the average of the group for that given day of the study. P-values were calculated using two-tailed distribution and two-sample equal variance (homoscedastic) for each group treated with Compound 1 for each given day of the study in reference to vehicle control. NS p>0.05; *p≤0.05; **p≤0.01; ***p p≤0.001; **** p≤0.0001.
Anti-tumor efficacy of Compound 1 was evaluated against three (3) different preclinical oncology mice models of colorectal cancer, prostate cancer, and lung adenocarcinoma (see Table 5 below). For this purpose, an oral formulation of Compound 1 was used.
A549 is a human lung adenocarcinoma cell line isolated from the lung tissue of their origin. […] A549 cells were implanted subcutaneously in nude mice and tumors were allowed to grow to an average volume of 112 mm^3 followed by randomization into three (3) groups consisting of vehicle control, 75 mg/kg and 150 mg/kg Compound 1 (12 animals per group). A Compound 1 solid dispersion was administered by oral gavage two times a day (BID). All animals remained in the study until Day 28 except one animal from Group 3 (Animal #29), which exited the study on Day 11 due to more than 20% body weight loss. This animal was excluded from all analysis. Data from Day 14-18 were excluded from the analysis due to inconsistencies in data collection methods.

Series [2] deals with P-gp (Homo sapiens, UniProt P08183). As to the kind of experiment: P-gp substrate status. In kind it is in vitro ADME.
The subject of series [3] is colchicine binding site of tubulin. As to the kind of experiment: EBI labeling assay in MIA PaCa2 cells (Western blot). Format: cell-based. As to conditions: 2 hours compound, then 2 hours 100 μM EBI, FIG. 2, FIG. 3. For orientation: A western blot detects proteins with antibodies after separation by electrophoresis.
Procedure: MIA PaCa2 cells were cultured in DMEM+10% FBS and 1% P/S. Cells were plated at 1.5-2×10^6 in 60 mm dishes. For drug treatments, cells were treated the day after plating with 0.1% DMSO or the compounds tested at the concentrations indicated in FIG. 2 for 2 hours.
• Cells were treated with compounds for 2 hours at 37°, 5% CO2 (in the cell culture incubator), and then for an additional 2 hours with 100 μM EBI (with compounds present) under the same conditions. • Cells were then harvested with Trypsin and pelleted at 500 g for 3 minutes. • Cells were rinsed in 1 mL PBS and transferred to clean epi tubes. […] BCA assay plates were incubated for 15 minutes in the 37-degree incubator in the outer molecular lab. • After protein normalization (including addition of reducing Laemmli buffer from a 6× stock) samples were boiled at 95 degrees for 3 minutes and frozen for subsequent Western Blotting.
Significance in difference of treated MIA PaCa-2 cells to 0.1% DMSO treated cells were tested by Student t test (* p<0.05; ** p<0.01; *** p<0.001).
Series [4] has as its system HCT116 cells. As to the kind of experiment: Kinetochore assembly, immunocytochemistry / confocal microscopy. Format: cell-based. The following applies: 300 nM, 24h. How it is done: The HCT116 cells were cultured using DMEM media supplemented with 10% FBS and 1% Pen/Strep. Cells were maintained to a maximum of 80% confluency before being split and plated into coverslips in 12-well plates.
1. HCT116 cells were plated on Poly-D-Lysine German Glass Coverslips (#1.5, 18 mm)
2. After 24h cells were treated with 300 nM of Compound 1 and Nocodozole.
3. After 24h cells were washed briefly with PBS and fixed with warm 4% paraformaldehyde at room temperature for 10 min.
4. Cells were permeabilized and blocked in 10% goat serum, 0.5% Triton-X in PBS for 1 hr.
5. Cells were incubated with Primary antibodies overnight.
6. Washed 3× with PBS for 10 min
7. Incubated with secondary antibodies at room temperature for 1 hr.
8. Washed 3× with PBS for 10 min
9. Coverslips were mounted with ProLong Gold Anti-Fade Mount with DAPI and imaged with Olympus FV1200 MPE Microscope.
10. Images were collected with identical confocal settings for all of the samples and Z-stacked images were projected with maximal projection mode using Fluor View Software.
1. Selected cells of interest using the drawing/selection tools (i.e. rectangle, circle, polygon or freeform).
2. From the Analyze menu selected “Measure.”
3. Selected region with no fluorescence to be my background.
4. Repeated these steps for other cells in the field of view
5. Used the CTCF formula to calculate Mad1 expression:
CTCF=Integrated Density−(Area of selected cell×Mean fluorescence of background readings)
Micrographs were imaged using Olympus FV1200 MPE confocal microscope at 63× oil. White arrows indicate dividing cells. Representative images of N=3 biological replicates. Significance in difference of treated HCT116 cells to untreated cells was tested by Student t test (** p<0.01).

The subject of series [5] is C6 rat glioma cells. Nature of the series: Orthotopic syngeneic C6 glioma model. In kind it is in vivo, Sprague Dawley rats. The source says:
FIG. 14A-14E show the efficacy of Compound 1 in glioblastoma cell lines in vitro and in a glioblastoma rat model (C6). A) In vitro potency of Compound 1 in four different glioblastoma cell lines as evaluated by Realtime-Glo™ assay (C6, and U87 cells) or ATPlite 1Step™ Perkin Elmer (performed by NTRC Oncolines; T98G and A-172 cells). B) Study design overview: C6 rat glioma cells (3×10^5) were implanted into the right entorhinal cortex/subiculum region of male Sprague Dawley rats and tumor burden was assessed 14 days post inoculation using MRI and animals randomized into […] (4) groups (vehicle control, 5 mg/kg, 10 mg/kg, and 20 mg/kg Compound 1) with 4 animals per group. […] C) Body weights were measured every two days. […]
Glioblastoma (GBM) is the most common and highly malignant form of primary brain tumor with a poor prognosis despite advances in treatments. […] Accordingly, the in vitro potency of Compound 1 was examined in four different glioblastoma cell lines as evaluated by Realtime-Glo™ assay (C6, and U87 cells) or ATPlite 1Step™ Perkin Elmer (performed by NTRC Oncolines; T98G and A-172 cells). […] Therefore, the in vivo tumor activity of Compound 1 was next assessed in Sprague Dawley rats implanted with C6 rat glioma cells into the right entorhinal cortex/subiculum region (AP: −7 mm; ML: 4.5 mm, DV: 5 mm). […]

P-gp, sequence (P08183 whole entry): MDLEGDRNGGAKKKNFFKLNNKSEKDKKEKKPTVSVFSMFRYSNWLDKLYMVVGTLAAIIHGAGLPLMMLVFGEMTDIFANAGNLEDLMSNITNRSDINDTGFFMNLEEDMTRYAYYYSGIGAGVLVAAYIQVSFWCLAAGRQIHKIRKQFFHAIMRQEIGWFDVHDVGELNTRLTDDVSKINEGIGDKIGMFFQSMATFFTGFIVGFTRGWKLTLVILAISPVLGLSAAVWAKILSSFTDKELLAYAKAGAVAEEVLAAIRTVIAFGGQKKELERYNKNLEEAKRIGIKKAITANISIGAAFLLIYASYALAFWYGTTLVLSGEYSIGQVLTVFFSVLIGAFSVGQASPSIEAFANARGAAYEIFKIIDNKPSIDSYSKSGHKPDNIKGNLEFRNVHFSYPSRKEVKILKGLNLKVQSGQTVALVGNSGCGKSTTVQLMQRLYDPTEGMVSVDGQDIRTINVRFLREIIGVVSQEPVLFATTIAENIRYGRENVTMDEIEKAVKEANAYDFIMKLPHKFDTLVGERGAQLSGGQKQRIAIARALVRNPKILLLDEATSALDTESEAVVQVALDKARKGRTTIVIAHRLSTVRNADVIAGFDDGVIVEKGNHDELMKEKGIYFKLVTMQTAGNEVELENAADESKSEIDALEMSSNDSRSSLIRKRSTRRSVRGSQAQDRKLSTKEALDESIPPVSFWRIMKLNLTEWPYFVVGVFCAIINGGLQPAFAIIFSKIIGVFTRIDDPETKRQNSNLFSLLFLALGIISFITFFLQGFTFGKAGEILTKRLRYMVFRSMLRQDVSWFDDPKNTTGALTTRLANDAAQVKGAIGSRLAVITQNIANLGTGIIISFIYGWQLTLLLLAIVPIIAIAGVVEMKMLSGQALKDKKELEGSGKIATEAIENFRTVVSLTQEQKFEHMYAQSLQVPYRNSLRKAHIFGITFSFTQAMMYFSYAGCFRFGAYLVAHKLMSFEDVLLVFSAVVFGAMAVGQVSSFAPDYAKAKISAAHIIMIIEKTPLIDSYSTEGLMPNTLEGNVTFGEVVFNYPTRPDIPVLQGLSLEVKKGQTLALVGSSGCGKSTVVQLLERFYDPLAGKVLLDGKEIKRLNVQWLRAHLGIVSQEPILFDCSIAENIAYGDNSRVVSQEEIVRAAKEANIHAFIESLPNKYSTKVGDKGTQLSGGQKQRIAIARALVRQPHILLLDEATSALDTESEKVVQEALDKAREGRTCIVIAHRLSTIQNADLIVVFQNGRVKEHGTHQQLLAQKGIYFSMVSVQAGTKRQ

Consider `COc1ccccc1-c1nc(CNC(=O)c2ccccc2OC(F)F)n[nH]1` [Compound 1, 2-(difluoromethoxy)-N-[[5-(2-methoxyphenyl)-1H-1,2,4-triazol-3-yl]methyl]benzamide], for which the entries for the “Highest TGI (%)” value in series [1] (75 mg/kg BID oral) and in series [1] (150 mg/kg BID oral) were 36.61% and 55.43%, respectively. Moreover, the “Maximum TGI (%), end of the study” value in series [1] (150 mg/kg dose) turned out to be 34.64%. Also, the Body weight entry in series [1] (75 and 150 mg/kg) is “no drug effect”. For the same compound, the Average tumor growth entry in series [1] (all doses evaluated, FIG. 13B) is given as “decreased the average tumor growth at all doses evaluated”. Moreover, the P-gp substrate entry in series [2] is “not a substrate for P-gp”. For the same compound, the “Formation of EBI:β-tubulin adducts” value in series [3] was “inhibited the formation of EBI (N,N′-ethylene-bis(iodoacetamide)):β-tubulin adducts”. Also, the Mitotic spindle formation result in series [4] (FIG. 4A) is given as “lack of proper mitotic spindle formation”. The Mad1 signal intensity entry in series [4] (FIG. 4B) was “increase in Mad1 signal intensity”. For the same compound, the “Animals still alive at day 60 post-treatment initiation” value in series [5] (2 in each treatment group (5, 10, 20 mg/kg)) is “six”. Besides, the “MRI imaging of surviving animals” value in series [5] (FIG. 14E) was “reduction in tumor size and tumor fragmentation”.

The values are drawn from patent US20240342138A1, “MICROTUBULE TARGETING AGENTS” (BPGbio, Inc., priority 2023, published 2024).
